Results reported in patent US20230192686A1, “1H-PYRROLO[2,3-B]PYRIDINES AND PREPARATION AND USES THEREOF” (BioSplice Therapeutics, Inc., priority 2021, published 2023).

Target: recombinant DYRK1A kinase (Homo sapiens, UniProt Q13627)
Assay: DYRK1A kinase assay (Ser/Thr 18 peptide Z-lyte FRET)
Type: biochemical
Conditions: DYRK1A kinase activity; 15 μM ATP, 4 μM Ser/Thr peptide 18, one hour at room temperature
How it was run: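 Recombinant DYRK1A at 0.25 μg/mL was incubated 1 h at room temperature with 15 μM ATP, 4 μM Ser/Thr 18 peptide and compound, in duplicate, 11-point series from 10 μM. Phosphorylation was read by Z-lyte FRET after 1 h protease development, as the coumarin/fluorescein emission ratio converted to % phosphorylation. IC50 by non-linear regression.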

Compound | EC50 [nM]
O=C(c1cnn2ccc(-c3c[nH]c4nc(C5CCC5)ccc34)cc12)N1CCCCC1 [Compound 1558, (5-(6-Cyclobutyl-1H-pyrrolo[2,3-b]pyridin-3-yl)pyrazolo[1,5-a]pyridin-3-yl)(piperidin-1-yl)methanone] | 291
Cc1cnc2[nH]cc(-c3ccc4nccn4c3)c2c1 [Compound 280, 6-(5-methyl-1H-pyrrolo[2,3-b]pyridin-3-yl)imidazo[1,2-a]pyridine] | 4
Clc1ccc2c(-c3ccc4ncccc4c3)c[nH]c2n1 [Compound 1446, 6-(6-Chloro-1H-pyrrolo[2,3-b]pyridin-3-yl)quinoline] | 11
CN1CCn2ncc(-c3cnc4[nH]cc(-c5ccc6ncncc6c5)c4c3)c2C1 [Compound 1154, 6-(5-(5-Methyl-4,5,6,7-tetrahydropyrazolo[1,5-a]pyrazin-3-yl)-1H-pyrrolo[2,3-b]pyridin-3-yl)quinazoline] | 10
CN1CCC(C(=O)Nc2ccc3c(-c4ccc5c(c4)C(C)(C)CNC5=O)c[nH]c3n2)CC1 [Compound 1863, N-(3-(4,4-Dimethyl-1-oxo-1,2,3,4-tetrahydroisoquinolin-6-yl)-1H-pyrrolo[2,3-b]pyridin-6-yl)-1-methylpiperidine-4-carboxamide] | 5
CN1CC2CCC(C1)N2C(=O)c1cnn2ccc(-c3c[nH]c4ncccc34)cc12 [Compound 59, (5-(1H-Pyrrolo[2,3-b]pyridin-3-yl)pyrazolo[1,5-a]pyridin-3-yl)(3-methyl-3,8-diazabicyclo[3.2.1]octan-8-yl)methanone] | 81
CN1CC2(C1)CN(C(=O)c1cnn3ccc(-c4c[nH]c5ncccc45)cc13)C2 [Compound 62, (5-(1H-Pyrrolo[2,3-b]pyridin-3-yl)pyrazolo[1,5-a]pyridin-3-yl)(6-methyl-2,6-diazaspiro[3.3]heptan-2-yl)methanone] | 5
CN1CCC(C(=O)Nc2ccc3c(-c4ccn5ncc(-c6cccnc6)c5c4)c[nH]c3n2)CC1 [Compound 1847, 1-Methyl-N-(3-(3-(pyridin-3-yl)pyrazolo[1,5-a]pyridin-5-yl)-1H-pyrrolo[2,3-b]pyridin-6-yl)piperidine-4-carboxamide] | 1
CN1CCC(NC(=O)c2cnn3ccc(-c4c[nH]c5nc(-c6cnn(C)c6)ccc45)cc23)CC1 [Compound 1976, 5-(6-(1-Methyl-1H-pyrazol-4-yl)-1H-pyrrolo[2,3-b]pyridin-3-yl)-N-(1-methylpiperidin-4-yl)pyrazolo[1,5-a]pyridine-3-carboxamide] | 10
Cc1cnc2ccc(-c3c[nH]c4ncccc34)nn12 [Compound 34, 3-Methyl-6-(1H-pyrrolo[2,3-b]pyridin-3-yl)imidazo[1,2-b]pyridazine] | 2
CN1CCN(c2ccc(-c3cnc4[nH]cc(-c5ccc6ncccc6c5)c4c3)cn2)CC1 [Compound 1362, 6-(5-(6-(4-Methylpiperazin-1-yl)pyridin-3-yl)-1H-pyrrolo[2,3-b]pyridin-3-yl)quinoline] | 1
c1cncc(-c2cnn3ccc(-c4c[nH]c5ncccc45)cc23)c1 [Compound 38, 3-(3-(Pyridin-3-yl)pyrazolo[1,5-a]pyridin-5-yl)-1H-pyrrolo[2,3-b] pyridine] | 2
O=C(c1ccnc2ccc(-c3c[nH]c4ncccc34)cc12)N1CCNC2(CC2)C1 [Compound 88, (6-(1H-Pyrrolo[2,3-b]pyridin-3-yl)quinolin-4-yl)(4,7-diazaspiro[2.5]octan-7-yl)methanone] | 3
Cn1cc2cc(-c3c[nH]c4ncccc34)ccc2n1 [Compound 3, 2-Methyl-5-(1H-pyrrolo[2,3-b]pyridin-3-yl)-2H-indazole] | 6
COc1ncnc2ccc(-c3c[nH]c4nc(C5CC5)ccc34)cc12 [Compound 1533, 6-(6-Cyclopropyl-1H-pyrrolo[2,3-b]pyridin-3-yl)-4-methoxyquinazoline] | 229
c1cnc2[nH]cc(-c3ccn4ncnc4c3)c2c1 [Compound 30, 7-(1H-Pyrrolo[2,3-b]pyridin-3-yl)-[1,2,4]triazolo[1,5-a]pyridine] | 13
CN1CCOc2cc(-c3c[nH]c4ncccc34)ccc2C1=O [Compound 85, 4-Methyl-8-(1H-pyrrolo[2,3-b]pyridin-3-yl)-3,4-dihydrobenzo[f] [1,4]oxazepin-5(2H)-one] | 25
COc1ccc2c(-c3ccc4nccn4c3)c[nH]c2n1 [Compound 1666, 6-(6-Methoxy-1H-pyrrolo[2,3-b]pyridin-3-yl)imidazo[1,2-a]pyridine] | 18
Cc1nc2c(F)cc(-c3c[nH]c4ncc(C(=O)N5C6CCC5CN(C)C6)cc34)cc2n1C(C)C [Compound 535, (3-(4-Fluoro-1-isopropyl-2-methyl-1H-benzo[d]imidazol-6-yl)-1H-pyrrolo[2,3-b]pyridin-5-yl)(3-methyl-3,8-diazabicyclo[3.2.1]octan-8-yl)methanone] | 2

Compound | EC50 [nM]
CN1CCN(Cc2cnc3[nH]cc(-c4ccc5c(c4)C(C)(C)CNC5=O)c3c2)CC1 [Compound 435, 4,4-dimethyl-6-(5-((4-methylpiperazin-1-yl)methyl)-1H-pyrrolo[2,3-b]pyridin-3-yl)-3,4-dihydroisoquinolin-1(2H)-one] | 96
CN1CC(F)(CNC(=O)c2cnn3ccc(-c4c[nH]c5ncccc45)cc23)C1 [Compound 42, N-((3-Fluoro-1-methylazetidin-3-yl)methyl)-5-(1H-pyrrolo[2,3-b]pyridin-3-yl)pyrazolo[1,5-a]pyridine-3-carboxamide] | 2
O=C1CC2(CCNCC2)Oc2cc(-c3c[nH]c4ncccc34)ccc21 [Compound 83, 7-(1H-Pyrrolo[2,3-b]pyridin-3-yl)spiro[chromane-2,4′-piperidin]-4-one] | 29
CN1CC[C@@H](NC(=O)c2cnn3ccc(-c4c[nH]c5ncccc45)cc23)[C@H](F)C1 [Compound 44, N-((3R,4R)-3-Fluoro-1-methylpiperidin-4-yl)-5-(1H-pyrrolo[2,3-b]pyridin-3-yl)pyrazolo[1,5-a]pyridine-3-carboxamide] | 1
c1nc2ccc(-c3c[nH]c4nc(C5CC5)ccc34)cn2n1 [Compound 1505, 6-(6-Cyclopropyl-1H-pyrrolo[2,3-b]pyridin-3-yl)-[1,2,4]triazolo[1,5-a] pyridine] | 100
CN1CCC(Oc2ncnc3ccc(-c4c[nH]c5nc(NC(=O)c6ccncc6)ccc45)cc23)CC1 [Compound 1913, N-(3-(4-((1-Methylpiperidin-4-yl)oxy)quinazolin-6-yl)-1H-pyrrolo [2,3-b]pyridin-6-yl)isonicotinamide] | 5
O=C1NCCc2sc(-c3c[nH]c4ncccc34)cc21 [Compound 11, 2-(1H-Pyrrolo[2,3-b]pyridin-3-yl)-6,7-dihydrothieno[3,2-c]pyridin-4(5H)-one] | 12
O=C(Nc1cccnc1)c1cnn2ccc(-c3c[nH]c4nc(CO)ccc34)cc12 [Compound 1809, 5-(6-(Hydroxymethyl)-1H-pyrrolo[2,3-b]pyridin-3-yl)-N-(pyridin-3-yl) pyrazolo[1,5-a]pyridine-3-carboxamide] | 3
CN1CCN(c2ccc(CNc3ncnc4ccc(-c5c[nH]c6ncccc56)cc34)cn2)CC1 [Compound 104, N-((6-(4-Methylpiperazin-1-yl)pyridin-3-yl)methyl)-6-(1H-pyrrolo[2,3-b]pyridin-3-yl)quinazolin-4-amine] | 11
CN1CCN(c2ncnc3ccc(-c4c[nH]c5nc(C6CC6)ccc45)cc23)CC1 [Compound 1534, 6-(6-Cyclopropyl-1H-pyrrolo[2,3-b]pyridin-3-yl)-4-(4-methylpiperazin-1-yl)quinazoline] | 12
O=C1NCCOc2c1ccc(-c1c[nH]c3ncccc13)c2F [Compound 86, 9-Fluoro-8-(1H-pyrrolo[2,3-b]pyridin-3-yl)-3,4-dihydrobenzo[f] [1,4]oxazepin-5(2H)-one] | 7
Cc1cn2cc(-c3c[nH]c4ncccc34)cc(F)c2n1 [Compound 13, 8-Fluoro-2-methyl-6-(1H-pyrrolo[2,3-b]pyridin-3-yl)imidazo[1,2-a]pyridine] | 21
CN1CCN(C(=O)c2cnc3[nH]cc(-c4ccc5c(c4)OCCNC5=O)c3c2)CC1 [Compound 521, 8-(5-(4-Methylpiperazine-1-carbonyl)-1H-pyrrolo[2,3-b]pyridin-3-yl)-3,4-dihydrobenzo[f][1,4]oxazepin-5(2H)-one] | 9
c1cnc2[nH]cc(-c3ccc4ncnc(N5CCNC6(CCCC6)C5)c4c3)c2c1 [Compound 98, 9-(6-(1H-Pyrrolo[2,3-b]pyridin-3-yl)quinazolin-4-yl)-6,9-diazaspiro [4.5]decane] | 2
c1cnc2[nH]cc(-c3ccn4nccc4n3)c2c1 [Compound 65, 5-(1H-Pyrrolo[2,3-b]pyridin-3-yl)pyrazolo[1,5-a]pyrimidine] | 7
Cc1nc2cnc(-c3c[nH]c4nc(C5CCC5)ccc34)cc2n1C(C)C [Compound 1546, 6-(6-Cyclobutyl-1H-pyrrolo[2,3-b]pyridin-3-yl)-1-isopropyl-2-methyl-1H-imidazo[4,5-c]pyridine] | 2050
CN1CCn2ncc(-c3cnc4[nH]cc(-c5ccn6ncc(C(=O)Nc7cccnc7)c6c5)c4c3)c2C1 [Compound 1137, 5-(5-(5-Methyl-4,5,6,7-tetrahydropyrazolo[1,5-a]pyrazin-3-yl)-1H-pyrrolo[2,3-b]pyridin-3-yl)-N-(pyridin-3-yl)pyrazolo[1,5-a]pyridine-3-carboxamide] | 4
CN1CCC(Nc2ncnc3ccc(-c4c[nH]c5ncccc45)cc23)CC1 [Compound 100, N-(1-Methylpiperidin-4-yl)-6-(1H-pyrrolo[2,3-b]pyridin-3-yl) quinazolin-4-amine] | 6
CN1CCC2(CC1)CC(=O)c1ccc(-c3c[nH]c4nc(NC(=O)c5ccncc5)ccc34)cc12 [Compound 1899, N-(3-(1′-methyl-3-oxo-2,3-dihydrospiro[indene-1,4′-piperidin]-6-yl)-1H-pyrrolo[2,3-b]pyridin-6-yl)isonicotinamide] | 14
